Assay results reported in patent US10844077B2, “Thiazolyl-containing compounds for treating proliferative diseases” (Dana-Farber Cancer Institute, Inc., priority 2014, dated 2020).
“And” between values parts separate entries of the source, which are not always exact repeats. Equal values may be shown once. Read-outs that look alike come from different tables or passages of the source.

Key:
Type in all cases: cell-based
MAP2K5 = MAP2K5 (Homo sapiens (Human), UniProt Q13163); assay: KINATIV assay; settings: 1 μM, 90 minutes, BCWM.1 cells
Sequence of MAP2K5 (Q13163 whole entry): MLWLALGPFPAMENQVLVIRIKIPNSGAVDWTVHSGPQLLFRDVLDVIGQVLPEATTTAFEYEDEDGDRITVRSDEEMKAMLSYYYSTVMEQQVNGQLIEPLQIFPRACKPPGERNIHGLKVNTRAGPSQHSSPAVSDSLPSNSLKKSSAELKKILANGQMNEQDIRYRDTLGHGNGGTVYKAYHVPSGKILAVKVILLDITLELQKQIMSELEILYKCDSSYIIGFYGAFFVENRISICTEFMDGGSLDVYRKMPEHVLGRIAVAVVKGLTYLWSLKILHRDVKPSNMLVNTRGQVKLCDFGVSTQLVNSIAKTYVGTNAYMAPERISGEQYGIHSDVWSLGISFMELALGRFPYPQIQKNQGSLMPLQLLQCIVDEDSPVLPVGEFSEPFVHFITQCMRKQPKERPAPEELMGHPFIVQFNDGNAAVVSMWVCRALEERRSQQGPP
Outline: (§1)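 ATP-biotin probe labeling of whole-cell lysates, followed by ACTIVX identification/quantitation of bound kinases; compounds in duplicate.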

NDR2 = NDR2 (Homo sapiens (Human), UniProt Q9Y2H1); assay: KINATIV assay; settings: 1 μM, 90 minutes, BCWM.1 cells
Sequence of NDR2 (Q9Y2H1 whole entry): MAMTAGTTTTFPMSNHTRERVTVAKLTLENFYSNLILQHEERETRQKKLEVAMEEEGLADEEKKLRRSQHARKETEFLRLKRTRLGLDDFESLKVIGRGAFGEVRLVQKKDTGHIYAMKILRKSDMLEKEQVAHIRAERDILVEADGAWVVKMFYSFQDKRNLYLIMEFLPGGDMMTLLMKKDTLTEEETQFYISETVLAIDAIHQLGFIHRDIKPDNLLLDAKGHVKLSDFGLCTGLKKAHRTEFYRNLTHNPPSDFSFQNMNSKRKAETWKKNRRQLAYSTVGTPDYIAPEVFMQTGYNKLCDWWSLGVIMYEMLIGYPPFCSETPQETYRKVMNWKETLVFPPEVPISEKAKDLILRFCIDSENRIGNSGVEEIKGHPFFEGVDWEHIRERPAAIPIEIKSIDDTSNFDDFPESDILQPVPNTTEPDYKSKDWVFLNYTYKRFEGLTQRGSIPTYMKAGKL
Outline: as §1

kinases in BCWM.1 cells [1] = biological target: kinases in BCWM.1 cells (Homo sapiens, UniProt Q99755); settings: PIP5K1A; ATP; 1 μM, 90 min; GF
Experimental: (§2) The cells were harvested and lysed. […] Bound kinases were identified and quantitated by ACTIVX as described in Patricelli et al., Biochemistry, 2007, 46(2): 350-358. The compounds were tested in duplicates against duplicate or quadruplicate control samples.

IRAK4 = IRAK4 (Homo sapiens (Human), UniProt Q9NWZ3); assay: KINATIV assay; settings: 1 μM, 90 minutes, BCWM.1 cells
Sequence of IRAK4 (Q9NWZ3 whole entry): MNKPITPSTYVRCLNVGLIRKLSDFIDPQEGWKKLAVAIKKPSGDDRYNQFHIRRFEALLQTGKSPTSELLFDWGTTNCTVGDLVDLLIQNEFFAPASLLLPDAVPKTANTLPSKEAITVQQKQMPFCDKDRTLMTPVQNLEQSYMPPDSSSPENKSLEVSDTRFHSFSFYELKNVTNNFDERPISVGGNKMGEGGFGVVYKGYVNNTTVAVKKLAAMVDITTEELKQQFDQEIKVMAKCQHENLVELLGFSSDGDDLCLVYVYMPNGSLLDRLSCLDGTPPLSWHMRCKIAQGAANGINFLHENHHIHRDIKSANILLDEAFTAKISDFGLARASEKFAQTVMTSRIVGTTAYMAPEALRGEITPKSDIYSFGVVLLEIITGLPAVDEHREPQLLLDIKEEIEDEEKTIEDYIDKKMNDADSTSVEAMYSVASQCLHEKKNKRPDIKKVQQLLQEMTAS
Outline: as §1

LOK = LOK (Homo sapiens (Human), UniProt O94804); assay: KINATIV assay; settings: 1 μM, 90 minutes, BCWM.1 cells
Sequence of LOK (O94804 whole entry): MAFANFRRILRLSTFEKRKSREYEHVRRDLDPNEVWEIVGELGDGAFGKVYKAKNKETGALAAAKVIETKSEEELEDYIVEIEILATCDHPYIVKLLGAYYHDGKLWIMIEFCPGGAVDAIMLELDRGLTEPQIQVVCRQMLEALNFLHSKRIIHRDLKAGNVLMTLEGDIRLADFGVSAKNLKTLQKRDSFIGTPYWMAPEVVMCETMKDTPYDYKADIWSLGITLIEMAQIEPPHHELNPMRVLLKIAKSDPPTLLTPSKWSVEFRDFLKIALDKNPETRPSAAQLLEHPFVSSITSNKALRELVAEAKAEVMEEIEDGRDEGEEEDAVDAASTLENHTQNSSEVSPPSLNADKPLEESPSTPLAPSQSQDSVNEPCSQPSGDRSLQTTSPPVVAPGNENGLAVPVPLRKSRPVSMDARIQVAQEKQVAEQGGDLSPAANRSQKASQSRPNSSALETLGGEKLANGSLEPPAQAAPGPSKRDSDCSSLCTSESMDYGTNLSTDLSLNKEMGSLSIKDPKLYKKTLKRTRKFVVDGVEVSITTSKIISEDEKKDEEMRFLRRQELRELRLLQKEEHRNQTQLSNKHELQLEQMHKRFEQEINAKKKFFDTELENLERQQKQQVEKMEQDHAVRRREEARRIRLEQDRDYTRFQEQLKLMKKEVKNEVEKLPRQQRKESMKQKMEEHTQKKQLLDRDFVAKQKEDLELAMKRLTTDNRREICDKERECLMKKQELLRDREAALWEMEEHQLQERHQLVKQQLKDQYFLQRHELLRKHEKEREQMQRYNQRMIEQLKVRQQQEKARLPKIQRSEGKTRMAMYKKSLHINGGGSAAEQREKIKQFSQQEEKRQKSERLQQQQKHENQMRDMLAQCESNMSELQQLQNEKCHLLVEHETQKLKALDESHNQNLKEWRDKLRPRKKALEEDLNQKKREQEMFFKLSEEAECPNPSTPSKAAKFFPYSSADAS
Outline: as §1

PIK3C3 = PIK3C3 (Homo sapiens (Human), UniProt Q8NEB9); assay: KINATIV assay; settings: 1 μM, 90 minutes, BCWM.1 cells
Sequence of PIK3C3 (Q8NEB9 whole entry): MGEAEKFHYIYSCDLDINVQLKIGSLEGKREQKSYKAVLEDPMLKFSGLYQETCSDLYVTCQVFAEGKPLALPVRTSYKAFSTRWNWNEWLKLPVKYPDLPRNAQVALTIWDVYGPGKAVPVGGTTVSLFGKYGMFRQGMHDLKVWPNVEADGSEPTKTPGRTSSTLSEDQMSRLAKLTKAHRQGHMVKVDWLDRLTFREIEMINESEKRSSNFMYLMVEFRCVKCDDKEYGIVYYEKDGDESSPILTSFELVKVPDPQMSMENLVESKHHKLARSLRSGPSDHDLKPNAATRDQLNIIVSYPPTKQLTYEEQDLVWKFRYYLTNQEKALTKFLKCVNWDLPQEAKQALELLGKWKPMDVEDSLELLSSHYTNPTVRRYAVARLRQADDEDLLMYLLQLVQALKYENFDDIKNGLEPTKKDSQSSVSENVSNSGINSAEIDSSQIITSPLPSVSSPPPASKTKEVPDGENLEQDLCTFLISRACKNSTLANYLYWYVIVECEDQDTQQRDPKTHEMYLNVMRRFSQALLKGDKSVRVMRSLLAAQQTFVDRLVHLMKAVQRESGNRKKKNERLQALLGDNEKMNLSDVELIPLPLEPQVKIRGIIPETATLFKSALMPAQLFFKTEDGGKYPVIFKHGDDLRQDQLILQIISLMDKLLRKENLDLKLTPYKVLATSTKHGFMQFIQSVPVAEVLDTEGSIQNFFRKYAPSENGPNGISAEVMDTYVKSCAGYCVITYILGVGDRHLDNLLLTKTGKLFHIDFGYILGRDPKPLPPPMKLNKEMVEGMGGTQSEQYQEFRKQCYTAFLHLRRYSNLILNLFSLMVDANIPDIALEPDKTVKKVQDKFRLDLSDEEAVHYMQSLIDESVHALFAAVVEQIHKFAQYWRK
Outline: as §1

kinases in BCWM.1 cells [2] = biological target: kinases in BCWM.1 cells (Homo sapiens, UniProt O14733); settings: MAP2K7; Lys2; 1 μM; GF
Experimental: as §2

kinases in BCWM.1 cells [3] = biological target: kinases in BCWM.1 cells (Homo sapiens, UniProt O14936); settings: CASK; Lys1; 1 μM; GF
Experimental: as §2

kinases in BCWM.1 cells [4] = biological target: kinases in BCWM.1 cells (Homo sapiens, UniProt O15111); settings: IKKa; Lys2; 1 μM; GF
Experimental: as §2

kinases in BCWM.1 cells [5] = biological target: kinases in BCWM.1 cells (Homo sapiens, UniProt O75676); settings: MSK2 domain1; Lys2; 1 μM; GF
Experimental: as §2

kinases in BCWM.1 cells [6] = biological target: kinases in BCWM.1 cells (Homo sapiens, UniProt O95382); settings: MAP3K6; Lys2; 1 μM; GF
Experimental: as §2

kinases in BCWM.1 cells [7] = biological target: kinases in BCWM.1 cells (Homo sapiens, UniProt P06493); settings: CDC2; Protein Kinase Domain; 1 μM; GF
Experimental: as §2

kinases in BCWM.1 cells [8] = biological target: kinases in BCWM.1 cells (Homo sapiens, UniProt P07332); settings: FES; Lys1; 1 μM; GF
Experimental: as §2

kinases in BCWM.1 cells [9] = biological target: kinases in BCWM.1 cells (Homo sapiens, UniProt P09769); settings: FGR; Activation Loop; 1 μM; GF
Sequence of kinases in BCWM.1 cells (Homo sapiens, UniProt P09769) (P09769 2-529 limits assumed): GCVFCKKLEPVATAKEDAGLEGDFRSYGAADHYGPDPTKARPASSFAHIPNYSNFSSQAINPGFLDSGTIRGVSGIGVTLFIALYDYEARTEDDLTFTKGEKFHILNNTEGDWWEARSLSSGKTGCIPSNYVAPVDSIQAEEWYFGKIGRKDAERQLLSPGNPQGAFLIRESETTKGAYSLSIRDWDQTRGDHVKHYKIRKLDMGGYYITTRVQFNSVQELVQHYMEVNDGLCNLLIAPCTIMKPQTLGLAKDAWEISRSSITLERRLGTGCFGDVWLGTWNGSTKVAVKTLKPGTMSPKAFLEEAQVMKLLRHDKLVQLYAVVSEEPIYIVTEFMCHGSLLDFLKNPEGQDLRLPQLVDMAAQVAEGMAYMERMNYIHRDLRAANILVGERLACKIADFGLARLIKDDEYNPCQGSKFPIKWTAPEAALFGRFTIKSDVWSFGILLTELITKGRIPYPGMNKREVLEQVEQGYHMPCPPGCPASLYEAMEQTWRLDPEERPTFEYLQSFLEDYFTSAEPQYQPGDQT
Experimental: as §2

kinases in BCWM.1 cells [10] = biological target: kinases in BCWM.1 cells (Homo sapiens, UniProt P11802); settings: CDK4; Lys2; 1 μM; GF
Sequence of kinases in BCWM.1 cells (Homo sapiens, UniProt P11802) (P11802 2-303 limits assumed): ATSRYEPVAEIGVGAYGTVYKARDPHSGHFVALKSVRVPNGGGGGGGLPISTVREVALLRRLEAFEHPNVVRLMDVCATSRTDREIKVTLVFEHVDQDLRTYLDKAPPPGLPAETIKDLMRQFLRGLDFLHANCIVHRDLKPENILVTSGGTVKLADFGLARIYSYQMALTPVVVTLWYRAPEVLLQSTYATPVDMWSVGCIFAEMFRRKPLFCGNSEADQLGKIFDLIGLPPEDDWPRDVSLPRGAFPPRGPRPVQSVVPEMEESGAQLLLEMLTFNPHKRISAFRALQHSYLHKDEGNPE
Experimental: as §2

kinases in BCWM.1 cells [11] = biological target: kinases in BCWM.1 cells (Homo sapiens, UniProt P19784); settings: CK2a2; Lys2; 1 μM; GF
Experimental: as §2

kinases in BCWM.1 cells [12] = biological target: kinases in BCWM.1 cells (Homo sapiens, UniProt P28482); settings: Erk2; Lys2; 1 μM; GF
Sequence of kinases in BCWM.1 cells (Homo sapiens, UniProt P28482) (P28482 2-360 limits assumed): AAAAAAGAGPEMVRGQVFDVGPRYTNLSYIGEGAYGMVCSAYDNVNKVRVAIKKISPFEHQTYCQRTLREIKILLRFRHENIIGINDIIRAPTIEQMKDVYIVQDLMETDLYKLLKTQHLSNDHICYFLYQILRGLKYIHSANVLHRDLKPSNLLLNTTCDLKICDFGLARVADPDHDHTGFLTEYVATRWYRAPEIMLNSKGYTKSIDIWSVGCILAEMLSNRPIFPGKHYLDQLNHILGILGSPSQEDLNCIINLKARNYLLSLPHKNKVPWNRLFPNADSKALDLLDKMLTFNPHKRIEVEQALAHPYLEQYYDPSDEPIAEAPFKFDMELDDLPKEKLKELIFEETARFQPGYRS
Experimental: as §2

kinases in BCWM.1 cells [13] = biological target: kinases in BCWM.1 cells (Homo sapiens, UniProt P31749); settings: AKT1; ATP Loop; 1 μM; GF
Experimental: as §2

kinases in BCWM.1 cells [14] = biological target: kinases in BCWM.1 cells (Homo sapiens, UniProt P49840); settings: GSK3A; Lys2; 1 μM; GF
Sequence of kinases in BCWM.1 cells (Homo sapiens, UniProt P49840) (P49840 2-483 limits assumed): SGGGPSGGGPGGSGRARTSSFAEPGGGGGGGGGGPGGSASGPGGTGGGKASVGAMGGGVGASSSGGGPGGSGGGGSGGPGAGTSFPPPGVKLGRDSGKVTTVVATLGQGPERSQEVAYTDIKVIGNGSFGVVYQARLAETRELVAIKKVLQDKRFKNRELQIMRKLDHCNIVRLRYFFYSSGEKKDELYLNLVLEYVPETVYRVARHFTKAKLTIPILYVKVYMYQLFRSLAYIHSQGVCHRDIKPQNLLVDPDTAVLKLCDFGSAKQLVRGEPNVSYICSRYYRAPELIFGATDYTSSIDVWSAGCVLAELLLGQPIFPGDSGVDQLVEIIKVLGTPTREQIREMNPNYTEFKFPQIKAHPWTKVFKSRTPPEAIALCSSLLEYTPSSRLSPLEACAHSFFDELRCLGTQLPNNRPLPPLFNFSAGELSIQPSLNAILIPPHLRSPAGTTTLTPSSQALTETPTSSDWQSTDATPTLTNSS
Experimental: as §2

kinases in BCWM.1 cells [15] = biological target: kinases in BCWM.1 cells (Homo sapiens, UniProt P78356); settings: PIP4K2B; ATP; 1 μM, 90 min; GF
Experimental: as §2

kinases in BCWM.1 cells [16] = biological target: kinases in BCWM.1 cells (Homo sapiens, UniProt Q13164); settings: Erk5; Lys2; 1 μM; GF
Experimental: as §2

kinases in BCWM.1 cells [17] = biological target: kinases in BCWM.1 cells (Homo sapiens, UniProt Q13557); settings: CaMK2d; Lys1; 1 μM; GF
Experimental: as §2

kinases in BCWM.1 cells [18] = biological target: kinases in BCWM.1 cells (Homo sapiens, UniProt Q16659); settings: Erk3; Lys2; 1 μM; GF
Experimental: as §2

kinases in BCWM.1 cells [19] = biological target: kinases in BCWM.1 cells (Homo sapiens, UniProt Q86UX6); settings: YANK3; Lys2; 1 μM, 90 min; GF
Experimental: as §2

kinases in BCWM.1 cells [20] = biological target: kinases in BCWM.1 cells (Homo sapiens, UniProt Q86XP1); settings: DGKH; ATP; 1 μM; GF
Experimental: as §2

kinases in BCWM.1 cells [21] = biological target: kinases in BCWM.1 cells (Homo sapiens, UniProt Q96GX5); settings: MASTL, 1 μM, GF
Experimental: as §2

kinases in BCWM.1 cells [22] = biological target: kinases in BCWM.1 cells (Homo sapiens, UniProt Q99759); settings: MAP3K3; Lys1; 1 μM; GF
Experimental: as §2

kinases in BCWM.1 cells [23] = biological target: kinases in BCWM.1 cells (Homo sapiens, UniProt Q9NRM7); settings: LATS2; Lys2; 1 μM; GF
Experimental: as §2

kinases in BCWM.1 cells [24] = biological target: kinases in BCWM.1 cells (Homo sapiens, UniProt Q9Y2U5); settings: MAP3K2; Lys1; 1 μM; GF
Experimental: as §2

kinases in BCWM.1 cells [25] = biological target: kinases in BCWM.1 cells (Homo sapiens, UniProt Q9Y6R4); settings: MAP3K4; Lys2; 1 μM; GF
Experimental: as §2

For `C=CC(=O)N1CCC(CNc2nccc(Nc3ncc(C(=O)Nc4c(C)cccc4C)s3)n2)C1` (racemic) [Example I-8], the “% change of MS signal compared to control sample” value (from here on “% change of MS signal”) (MAP2K5) was 19.2% and 30.9% and the “% change of MS signal” value (NDR2) was 1.9% and 9.1%.

For `C=CC(=O)N1CC[C@H](Nc2nccc(Nc3ncc(C(=O)Nc4c(C)cccc4C)s3)n2)C1` [Example I-3], the “% change of MS signal” value (kinases in BCWM.1 cells [1]) was 30.5%.

`C=CC(=O)N1CC[C@@H](Nc2nccc(Nc3ncc(C(=O)Nc4c(C)cccc4C)s3)n2)C1` [Example I-4] was tested, and the “% change of MS signal” value (IRAK4) was 17.8% and 25.9%, the “% change of MS signal” value (LOK) was −27.4% and the “% change of MS signal” value (NDR2) was −42.0%. For the same molecule, the “% change of MS signal” value (PIK3C3) was −14.1% and −5.5%.

For `C=CC(=O)N1CCCCC(Nc2nccc(Nc3ncc(C(=O)Nc4c(C)cccc4C)s3)n2)C1` (stereo not drawn) [Example I-7], the “% change of MS signal” value (MAP2K5) was 37.6% and 45.7%.

For `CCC(=O)N1CC[C@H](Nc2nccc(Nc3ncc(C(=O)Nc4c(C)cccc4C)s3)n2)C1` [Example I-9], the “% change of MS signal” value (kinases in BCWM.1 cells [2]) was −2.8% and −0.3%, the “% change of MS signal” value (kinases in BCWM.1 cells [3]) was −10.4% and the “% change of MS signal” value (kinases in BCWM.1 cells [4]) was −3.3% and −0.4%. The “% change of MS signal” value (kinases in BCWM.1 cells [5]) was −27% and −18.7%, the “% change of MS signal” value (kinases in BCWM.1 cells [6]) was −13.4% and −5% and the “% change of MS signal” value (kinases in BCWM.1 cells [7]) was −2.6% and −3.2%. For the same molecule, the “% change of MS signal” value (kinases in BCWM.1 cells [8]) was −11.2% and −3.9%, the “% change of MS signal” value (kinases in BCWM.1 cells [9]) was 84.7% and 72.1% and the “% change of MS signal” value (kinases in BCWM.1 cells [10]) was 1.2% and 3.4%. The “% change of MS signal” value (kinases in BCWM.1 cells [11]) was 7% and −1.8%, the “% change of MS signal” value (kinases in BCWM.1 cells [12]) was −3.8% and 4% and the “% change of MS signal” value (kinases in BCWM.1 cells [13]) was −25.1% and −16.8%. For the same molecule, the “% change of MS signal” value (kinases in BCWM.1 cells [14]) was 2.3% and 1.9%, the “% change of MS signal” value (kinases in BCWM.1 cells [15]) was −19% and the “% change of MS signal” value (kinases in BCWM.1 cells [16]) was −1.8% and 1.1%. For the same molecule, the “% change of MS signal” value (kinases in BCWM.1 cells [17]) was −8.1% and −8.2%, the “% change of MS signal” value (kinases in BCWM.1 cells [18]) was 16.9% and 25.3% and the “% change of MS signal” value (kinases in BCWM.1 cells [19]) was −13.2%. For the same molecule, the “% change of MS signal” value (kinases in BCWM.1 cells [20]) was −21.2% and −12.5%, the “% change of MS signal” value (kinases in BCWM.1 cells [21]; ATP Loop) was 0.4% and 1.8% and the “% change of MS signal” value (kinases in BCWM.1 cells [21]; Lys1) was 2.4% and 8%. The “% change of MS signal” value (kinases in BCWM.1 cells [22]) was −13.7% and −19.7%, the “% change of MS signal” value (kinases in BCWM.1 cells [23]) was −12.3% and −5.1% and the “% change of MS signal” value (kinases in BCWM.1 cells [24]) was −16.2% and −8.3%. The “% change of MS signal” value (kinases in BCWM.1 cells [25]) was 3.2% and 10.9%.

For `C=CC(=O)N1CCC(Cn2ccc(Nc3ncc(C(=O)Nc4c(C)cccc4Cl)s3)n2)C1` (stereo not drawn) [II-1], the “% change of MS signal” value (IRAK4) was 15.9% and 18.5%, the “% change of MS signal” value (LOK) was −5.5% and −15.4% and the “% change of MS signal” value (PIK3C3) was −4.7% and −11.6%.
